This passage reports IC50 and inhibition results from ChEMBL document CHEMBL3351785, “Discovery of nanomolar phosphoinositide 3-kinase gamma (PI3Kγ) inhibitors using ligand-based modeling and virtual screening followed by in vitro analysis” (Eur J Med Chem, 2014).

Non-standard residues stand in square brackets, D forms with d. Residues, ends and D or L forms follow the SMILES beside them. *: point of attachment. Cbz = O=C(OCc1ccccc1)*; Nva = CCC[CH](N)C(=O)O; Bn = c1ccc(C*)cc1

For assay [1], the target named is T1, Phosphatidylinositol 4,5-bisphosphate 3-kinase catalytic subunit gamma isoform (Homo sapiens, UniProt P48736). In words: Inhibition of PI3Kgamma (unknown origin) assessed as decrease in fluorescence intensity using phosphorylated substrate.
Target sequence in this assay (P48736 whole entry, canonical isoform): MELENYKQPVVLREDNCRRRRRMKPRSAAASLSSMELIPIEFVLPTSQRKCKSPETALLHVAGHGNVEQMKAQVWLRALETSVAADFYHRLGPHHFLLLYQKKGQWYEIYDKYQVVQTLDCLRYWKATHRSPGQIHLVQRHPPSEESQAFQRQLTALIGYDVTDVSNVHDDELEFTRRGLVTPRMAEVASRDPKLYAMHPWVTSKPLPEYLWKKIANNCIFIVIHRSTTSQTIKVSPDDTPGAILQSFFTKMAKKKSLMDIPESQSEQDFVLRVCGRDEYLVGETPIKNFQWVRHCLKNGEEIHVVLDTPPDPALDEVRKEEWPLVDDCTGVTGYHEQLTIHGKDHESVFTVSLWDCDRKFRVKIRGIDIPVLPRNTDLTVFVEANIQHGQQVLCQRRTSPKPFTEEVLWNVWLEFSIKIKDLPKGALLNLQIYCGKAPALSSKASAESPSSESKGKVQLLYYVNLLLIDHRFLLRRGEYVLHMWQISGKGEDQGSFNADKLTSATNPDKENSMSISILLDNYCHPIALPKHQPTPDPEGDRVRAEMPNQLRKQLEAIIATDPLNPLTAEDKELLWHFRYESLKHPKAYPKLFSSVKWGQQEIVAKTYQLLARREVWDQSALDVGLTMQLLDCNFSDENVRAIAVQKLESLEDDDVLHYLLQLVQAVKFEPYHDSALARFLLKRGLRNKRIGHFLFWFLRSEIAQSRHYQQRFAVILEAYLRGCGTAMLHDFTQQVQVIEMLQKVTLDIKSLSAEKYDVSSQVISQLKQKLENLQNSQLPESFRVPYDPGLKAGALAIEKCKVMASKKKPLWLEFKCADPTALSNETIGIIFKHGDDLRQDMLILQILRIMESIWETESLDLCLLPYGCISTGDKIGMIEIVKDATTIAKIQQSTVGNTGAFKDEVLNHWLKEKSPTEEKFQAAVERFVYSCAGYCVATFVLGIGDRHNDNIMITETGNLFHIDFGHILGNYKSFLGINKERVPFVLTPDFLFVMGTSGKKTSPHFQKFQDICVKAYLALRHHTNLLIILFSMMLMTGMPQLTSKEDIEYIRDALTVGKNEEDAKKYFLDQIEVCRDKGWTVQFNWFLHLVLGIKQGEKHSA
In assay [2] the target is T1, Phosphatidylinositol 4,5-bisphosphate 3-kinase catalytic subunit gamma isoform. In words: Inhibition of PI3Kgamma (unknown origin) assessed as decrease in fluorescence intensity using phosphorylated substrate at 10 uM.
Target sequence in this assay (P48736 whole entry, looked up, canonical isoform): as the sequence (P48736 whole entry, canonical isoform) above

Regarding `O=c1cc(N2CCOCC2)[nH]c2c(OCc3ccccc3)cccc12`, the IC50 in assay [1] is 10900 nM.
For the compound `N#Cc1ccc(CN2C(=O)COc3ccc(/C=C4\SC(=S)NC4=O)cc32)cc1`, the IC50 in assay [1] came to 152 nM.
As to `CCCCOc1ccc(C(CC(=O)O)CC(=O)O)cc1OC`, in assay [2], the inhibition was found to be 98%. Also, the IC50 in assay [1] came out at 134 nM.
Consider `CCCCCCCCCCCCCCCC1=NN(c2ccc(S(=O)(=O)O)cc2)C(=O)C1/N=N/c1ccccc1` (stereo unspecified), for which, in assay [2], the inhibition is 92%.
As for `COc1cc(CCN2C(=O)COc3ccc(/C=C4\SC(=S)NC4=O)cc32)cc(OC)c1`, the IC50 in assay [1] was 11.8 nM.
For the compound `CCOc1nc(OCC)c2[nH]c(C(=O)O)c(Br)c2n1`, the inhibition in assay [2] came to 50%.
Regarding `O=c1c2ccccc2nc(CSc2ncnc3[nH]cnc23)n1N1CCOCC1`, the IC50 in assay [1] is 138000 nM.
Regarding `COc1ccccc1-c1ccc(/C=C2\SC(=O)NC2=O)o1`, the IC50 in assay [1] is 1000 nM.
Still for that read-out and setting: the figure for `O=c1c2ccc(F)cc2nc(CSc2ncnc3[nH]cnc23)n1-c1ccccc1Cl` is 145000 nM.
On to `O=C(O)C(Nc1ccc(Oc2ccc(NC(C(=O)O)c3ccccc3)cc2)cc1)c1ccccc1` (stereo unspecified), for which, in assay [2], the inhibition worked out at 57%.
Still for that read-out and setting: the figure for `O=C(NC(CSCc1ccccc1)C(=O)NC(Cc1ccc(O)cc1)C(=O)O)OCc1ccccc1` (stereo unspecified) (Cbz-Cys(Bn)-Tyr-OH; configuration not given here) is 40%.
Consider `Cc1cccc(CN2C(=O)COc3ccc(/C=C4\SC(=S)NC4=O)cc32)c1`, for which the IC50 in assay [1] is 184 nM.
The same measure, in the same setting: the figure for `O=c1c2c(Cl)cccc2nc(CSc2ncnc3[nH]cnc23)n1-c1ccccc1F` is 3630 nM; for `O=C1NC(=S)S/C1=C\c1ccc2c(c1)N(CCc1ccc(Br)cc1)C(=O)CO2` it is 9.9 nM.
Consider `COc1ccc(C(CC(=O)c2ccc3c(c2)OCO3)C(=O)O)cc1OC` (stereo unspecified), for which the inhibition in assay [2] was determined as 94%. For the same compound, the IC50 in assay [1] stood at 234 nM.
For `O=c1cc(N2CCOCC2)[nH]c2c(Oc3ccccc3F)cccc12`, in assay [1], the IC50 stood at 7260 nM.
In the case of `CCN1C(=O)/C(=C\c2cc([N+](=O)[O-])ccc2OCC(=O)O)SC1=S`, the inhibition in assay [2] was 81%.
Turning to `O=C1NC(=S)S/C1=C\c1ccc(-c2cc([N+](=O)[O-])ccc2Br)o1`, the IC50 in assay [1] worked out at 3600 nM.
Consider `CCCC(NC(=O)OCc1ccccc1)C(=O)NC(Cc1ccc(O)cc1)C(=O)O` (stereo unspecified) (Cbz-[Nva]-Tyr-OH; configuration not given here), for which the inhibition in assay [2] amounted to 10%.
Take `COc1cc(/N=N\c2ccc(S(=O)(=O)O)cc2)ccc1/N=N/c1c(O)ccc2cc(S(=O)(=O)O)ccc12`: the inhibition in assay [2] amounted to 62%.
`COc1ccccc1CNc1cc(C)cc2c(=O)cc(N3CCOCC3)[nH]c12`: the IC50 in assay [1] came out at 10700 nM.
Consider `COc1cccc(CCN2C(=O)COc3ccc(/C=C4\SC(=S)NC4=O)cc32)c1`, for which, in assay [1], the IC50 turned out to be 11.2 nM.
For the compound `CC(C)(C)c1ccc(CN2C(=O)COc3ccc(/C=C4\SC(=S)NC4=O)cc32)cc1`, the IC50 in assay [1] worked out at 10.2 nM.
On to `O=S(=O)(O)c1ccc(OCCCCCCCCOc2ccc(S(=O)(=O)O)cc2)cc1`, for which the inhibition in assay [2] stood at 83%.
With `COc1cc(O)cc(/C=C2\SC(=S)NC2=O)c1`, the IC50 in assay [1] is 328 nM.
Regarding `O=S(=O)(O)c1ccc(OCCCCCCCCCCOc2ccc(S(=O)(=O)O)cc2)cc1`, in assay [2], the inhibition turned out to be 11%.
Take `CCCCn1c(CSc2ncnc3[nH]cnc23)nc2ccccc2c1=O`: in assay [1], the IC50 came to 218000 nM.
Take `Cc1cc(F)ccc1Oc1cccc2c(=O)cc(N3CCOCC3)[nH]c12`: the IC50 in assay [1] was found to be 18100 nM.
Consider `O=C(O)c1ccccc1SC(Sc1ccccc1C(=O)O)c1cccc(Cl)c1`, for which the inhibition in assay [2] turned out to be 88%. For the same compound, in assay [1], the IC50 turned out to be 187 nM.
In the case of `O=C(O)C[S+]([O-])c1ccc2c3c(cccc13)C(=O)c1ccccc1-2` (stereo unspecified), the inhibition in assay [2] came to 67%. Also, the IC50 in assay [1] turned out to be 1570 nM.
`O=C(NC(Cc1ccccc1)C(=O)NC(Cc1ccc(O)cc1)C(=O)O)OCc1ccccc1` (stereo not drawn) (Cbz-Phe-Tyr-OH; configuration not given here): the inhibition in assay [2] was 34%.
For the compound `COc1cc(C[C@@H](CC(=O)c2ccc3c(c2)OCO3)C(=O)O)cc(OC)c1OC`, in assay [2], the inhibition worked out at 83%. Besides, the IC50 in assay [1] came to 575 nM.
With `O=C1NC(=S)S/C1=C\c1ccc2c(c1)N(CCc1ccc(C(F)(F)F)cc1)C(=O)CO2`, the IC50 in assay [1] is 8.1 nM.
Turning to `CSCCC(NCc1c(O)ccc2c(-c3ccccc3)cc(=O)oc12)C(=O)O` (stereo unspecified), in assay [2], the inhibition stood at 27%.
For the compound `O=C(O)Cc1ccc(OCCCOc2ccc(CC(=O)O)cc2)cc1`, the inhibition in assay [2] came to 24%.
`Cc1ccccc1/N=N\c1ccc(/N=N/c2c(O)ccc3cc(S(=O)(=O)O)ccc23)c(C)c1`: in assay [2], the inhibition was 64%.
For the compound `O=c1cc(N2CCOCC2)[nH]c2c(Oc3ccc(F)cc3)cccc12`, the IC50 in assay [1] came out at 18100 nM.
On to `O=C1NC(=S)S/C1=C\c1ccc2c(c1)N(CCc1ccc(Cl)cc1)C(=O)CO2`, for which the IC50 in assay [1] stood at 20.1 nM.
Turning to `COc1ccccc1/N=N/c1c(O)c(S(=O)(=O)O)cc2cc(S(=O)(=O)O)ccc12`, the inhibition in assay [2] was found to be 76%.
With `CC(C)CC(NC(=O)OCc1ccccc1)C(=O)NC(Cc1ccc(O)cc1)C(=O)O` (stereo not drawn) (Cbz-Leu-Tyr-OH; configuration not given here), the inhibition in assay [2] was 57%.
With `Cc1ccc(CN2C(=O)COc3ccc(/C=C4\SC(=S)NC4=O)cc32)cc1`, in assay [1], the IC50 came to 124 nM.
Consider `CCCCOc1ccc(CCC(=O)O)cc1OCCCC`, for which, in assay [2], the inhibition came out at 20%.
`Cc1ccc(CCN2C(=O)COc3ccc(/C=C4\SC(=S)NC4=O)cc32)cc1`: the IC50 in assay [1] is 37.3 nM.
For `O=C(NC(Cc1ccc(OC(=O)OCc2ccccc2)cc1)C(=O)O)OCc1ccccc1` (stereo unspecified), the inhibition in assay [2] was 79%. Besides, in assay [1], the IC50 was 324 nM.
In the case of `O=C1NC(=S)S/C1=C\c1ccc2c(c1)N(Cc1ccc(Cl)cc1)C(=O)CO2`, in assay [1], the IC50 was found to be 30 nM.
With `COc1ccc2cc(C(=O)CCCC(C)C(=O)O)ccc2c1` (stereo unspecified), in assay [2], the inhibition came out at 58%. Moreover, the IC50 in assay [1] came out at 5180 nM.
The matching figures for `CCOc1ccc(Nc2ccc3c(O)cc(S(=O)(=O)O)cc3c2)cc1`: 72% and 992 nM.
Turning to `COc1cc2cc3c4cc(OC)c(OC)cc4cc[n+]3c(CCC(=O)O)c2cc1OC`, the inhibition in assay [2] is 57%. Further, in assay [1], the IC50 came out at 7330 nM.
As for `O=c1c2c(Cl)cccc2nc(CSc2ncnc3[nH]cnc23)n1-c1ccccc1-c1ccccc1`, the IC50 in assay [1] came out at 7620 nM.
Still for that read-out and setting: the figure for `Cc1ccc(CN2C(=O)COc3ccc(/C=C4\SC(=S)NC4=O)cc32)cc1C` is 11 nM.
For `COc1ccccc1/N=N/c1c(O)ccc2cc(S(=O)(=O)O)ccc12`, in assay [2], the inhibition was 19%.
On to `Cc1cc2c(cc1C(=O)CCC(=O)O)CC1(C2)Cc2cc(C)c(C(=O)CCC(=O)O)cc2C1`, for which the inhibition in assay [2] worked out at 67%.
On to `CC(C)(C)c1ccc(CCN2C(=O)COc3ccc(/C=C4\SC(=S)NC4=O)cc32)cc1`, for which, in assay [1], the IC50 was 140 nM.
As to `O=C(NC(Cc1ccc(O)cc1)C(=O)O)C(=O)c1c[nH]c2ccc([N+](=O)[O-])cc12` (stereo unspecified), the inhibition in assay [2] is 34%.
On to `O=c1cc(N2CCOCC2)[nH]c2c(Cc3ccccc3)cccc12`, for which the IC50 in assay [1] worked out at 10900 nM.
On to `O=C(O)Cc1ccc(OCCCCCOc2ccc(CC(=O)O)cc2)cc1`, for which, in assay [2], the inhibition turned out to be 7%.
In the case of `O=C(O)CCC(=O)c1ccc(Oc2ccc(Cl)cc2)cc1`, the inhibition in assay [2] was 51%.
Turning to `O=C1NC(=S)S/C1=C\c1ccc2c(c1)N(CCc1ccc(Cl)cc1Cl)C(=O)CO2`, the IC50 in assay [1] is 18.1 nM.
`O=c1c2c(F)cccc2nc(CSc2ncnc3[nH]cnc23)n1-c1ccccc1Cl`: in assay [1], the IC50 is 13100 nM.
The same measure, in the same setting: the value for `Cc1ccccc1-n1c(CSc2ncnc3[nH]cnc23)nc2cccc(Cl)c2c1=O` was 2540 nM.
As for `COc1ccccc1-n1c(CSc2ncnc3[nH]cnc23)nc2cccc(C)c2c1=O`, the IC50 in assay [1] stood at 1820 nM.
`COC[C@H]1OC(=O)c2coc3c2[C@@]1(C)C1=C(C3=O)[C@@H]2CCC(=O)[C@@]2(C)C[C@H]1OC(C)=O`: in assay [2], the inhibition was determined as 100%.
On to `O=S(=O)(O)c1ccc2c(/N=N/c3ccccc3Cl)c(O)ccc2c1`, for which the inhibition in assay [2] worked out at 76%.
In the case of `COc1cc(C(CC(=O)O)CC(=O)O)ccc1OCc1ccccc1`, the inhibition in assay [2] is 57%. Also, the IC50 in assay [1] came out at 5880 nM.
Take `Cc1cc(C)cc(CCN2C(=O)COc3ccc(/C=C4\SC(=S)NC4=O)cc32)c1`: in assay [1], the IC50 turned out to be 11.2 nM.
Same read-out and setting: the value for `O=C1NC(=S)S/C1=C\c1ccc2c(c1)N(Cc1ccc(C(F)(F)F)cc1)C(=O)CO2` was 116 nM.
As to `COc1cc2cc(C(=O)O)[nH]c2cc1OCc1ccccc1`, the inhibition in assay [2] was found to be 100%. Moreover, in assay [1], the IC50 worked out at 105 nM.
As to `O=c1c2c(Cl)cccc2nc(CSc2ncnc3[nH]cnc23)n1-c1ccccc1Cl`, in assay [1], the IC50 was determined as 5450 nM.
With `Cc1cccc2nc(CSc3ncnc4[nH]cnc34)n(-c3ccccc3Cl)c(=O)c12`, in assay [1], the IC50 was 6170 nM.
As for `Cc1cc(C(=O)O)c(C)cc1SSc1cc(C)c(C(=O)O)cc1C`, the inhibition in assay [2] was determined as 83%. In assay [1], the IC50 amounted to 1460 nM.
For the compound `COc1ccc(CCN2C(=O)COc3ccc(/C=C4\SC(=S)NC4=O)cc32)cc1`, the IC50 in assay [1] worked out at 27.7 nM.
For the compound `O=C1NC(=S)S/C1=C\c1ccc2c(c1)N(Cc1ccccc1)C(=O)CO2`, the IC50 in assay [1] was determined as 97 nM.
As to `O=C1NC(=S)S/C1=C\c1ccc2c(c1)N(CCc1ccc(F)c(F)c1)C(=O)CO2`, in assay [1], the IC50 was 20.4 nM.
Consider `O=C1NC(=S)S/C1=C\c1ccc2c(c1)N(CCc1ccccc1)C(=O)CO2`, for which the IC50 in assay [1] was found to be 103 nM.
Take `O=S(=O)(O)c1cc(O)c2ccc(Nc3ccc4c(O)cc(S(=O)(=O)O)cc4c3)cc2c1`: the inhibition in assay [2] stood at 31%.
With `O=C(COc1ccc(Cl)cc1C(=O)O)Nc1cccc(NC(=O)Nc2cccc(S(=O)(=O)F)c2)c1`, the inhibition in assay [2] stood at 51%. The IC50 in assay [1] was 9160 nM.
As for `O=C1NC(=S)S/C1=C\c1ccc2c(c1)N(CCc1cccc(Cl)c1)C(=O)CO2`, in assay [1], the IC50 amounted to 18 nM.
Take `COc1ccc(C(CC(=O)O)c2cc(OC)c(OC)c(OC)c2)cc1OC` (stereo unspecified): in assay [2], the inhibition stood at 58%. For the same compound, the IC50 in assay [1] amounted to 6070 nM.
As for `O=C(CCCCn1cnc2c(SCc3ccccc3)ncnc21)Nc1ccc(C(=O)O)c(O)c1`, in assay [2], the inhibition came to 37%.
With `Cc1cccc(CCN2C(=O)COc3ccc(/C=C4\SC(=S)NC4=O)cc32)c1`, the IC50 in assay [1] is 20.9 nM.
`O=C1NC(=S)S/C1=C\c1ccc2c(c1)N(CCc1ccc(Cl)c(Cl)c1)C(=O)CO2`: the IC50 in assay [1] was 18.4 nM.
In the case of `O=c1c2ccccc2nc(CSc2ncnc3[nH]cnc23)n1-c1ccccc1Cl`, in assay [1], the IC50 is 27900 nM.

The term IC50 denotes the point on the concentration scale where inhibition reaches its midpoint. By inhibition is commonly meant the share of the control response that was lost under treatment.
